Measurements as given in patent US12251445B2, “Gamma-hydroxybutyrate delivering compounds and processes for making and using them” (Zevra Therapeutics, Inc., priority 2022, dated 2025).

Assay: Pharmacokinetics of GHB in plasma after oral gavage of GHB delivering compounds in rats
Settings: vehicle water, mean conjugate/mean comparator
[1] = dose equivalent to 80 mg/kg NaGHB
[2] = molar equivalent of 100 mg/kg NaGHB

CCOC(=O)OCCCC(=O)O [O-(ethoxycarbonyl)-GHB]
% AUC0-4 hr vs study comparator sodium oxybate [1]: 54% | % Cmax vs study comparator sodium oxybate [1]: 51%

O=C1CCCO1 [GBL]
% AUC0-4 hr vs study comparator sodium oxybate [2]: 27% | % Cmax vs study comparator sodium oxybate [2]: 70%
